Some test systems named below: CAKI-1 renal; UACC-62 melanoma; SR leukemia; IGROV1 ovarian; 786-0 renal; OVCAR-5 ovarian.
Assay in all cases: NCI tumour cell line growth inhibition, 48 h

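Values below derive from 48-hour exposures of cells grown in 96-well plates, with endpoints linearly interpolated between the two concentrations bracketing the appropriate inhibition level. At the TGI there is no net growth.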

`CC(=O)c1cc2c(s1)C(=O)c1scc(C(C)=O)c1C2=O`: the TGI with CAKI-1 renal is 2.34 µM; with UACC-62 melanoma, 0.692 µM; in the experiment with SR leukemia it was 0.335 µM; with IGROV1 ovarian, 1.37 µM; in the experiment with 786-0 renal it was 1.9 µM; in the experiment with OVCAR-5 ovarian, 4.14 µM.
For the compound `C/C=C1\CN2CCC34c5ccccc5N(C)C35OCC4(C(=O)OC)C1CC25` (centres undefined), the TGI in the experiment with CAKI-1 renal, in the experiment with UACC-62 melanoma, with SR leukemia, in the experiment with IGROV1 ovarian, in the experiment on 786-0 renal and with OVCAR-5 ovarian was more than 100 µM each time.
As for `N#Cc1ccc(/C=N/NC(=O)CSCC(=O)N/N=C/c2ccc(C#N)cc2)cc1`, the TGI with CAKI-1 renal, with UACC-62 melanoma, in the experiment on SR leukemia, with IGROV1 ovarian, with 786-0 renal and with OVCAR-5 ovarian was more than 100 µM throughout.
Take `O=c1c2ncn(C3CCCCO3)c2n(-c2ccccc2)c(=S)n1-c1ccccc1` (centres undefined): the TGI in the experiment on CAKI-1 renal was more than 97.7 µM; in the experiment on UACC-62 melanoma it was 56.5 µM; in the experiment with SR leukemia it was more than 100 µM; with IGROV1 ovarian, 69.2 µM; in the experiment on 786-0 renal, more than 86.2 µM; in the experiment with OVCAR-5 ovarian, more than 76.5 µM.
As to `CC(=O)[C@H]1CC[C@H]2[C@@H]3CCC4=CC(=O)CC[C@]4(C)[C@H]3CC[C@]12C`, the TGI in the experiment on CAKI-1 renal was more than 100 µM; in the experiment on UACC-62 melanoma, 30.1 µM; in the experiment with SR leukemia, more than 100 µM; in the experiment with IGROV1 ovarian it was 71.4 µM; in the experiment on 786-0 renal it was 54.2 µM; with OVCAR-5 ovarian, 50.9 µM.
With `Cc1ccc2ccc(=O)oc2c1`, the TGI in the experiment on CAKI-1 renal, in the experiment with UACC-62 melanoma, in the experiment on SR leukemia, in the experiment with IGROV1 ovarian, in the experiment on 786-0 renal and with OVCAR-5 ovarian was more than 100 µM each time.
`OC12C3C4CC5C(C4[C@@H]1Br)C2[C@@](O)(c1c(F)c(F)c(F)c(F)c1F)C53` (some centres undefined): the TGI was 43.8 µM with CAKI-1 renal; more than 100 µM in the experiment with UACC-62 melanoma; 52.7 µM in the experiment on SR leukemia; more than 100 µM in the experiment with IGROV1 ovarian; more than 100 µM in the experiment on 786-0 renal; more than 100 µM with OVCAR-5 ovarian.
For the compound `COc1ccc(OC)c(C(=O)/C=C/c2cc(O)c(O)cc2F)c1`, the TGI in the experiment with CAKI-1 renal is 27.6 µM; in the experiment with UACC-62 melanoma it was 11.7 µM; in the experiment on SR leukemia, 4.62 µM; in the experiment on IGROV1 ovarian, 34.2 µM; with 786-0 renal it was 17.6 µM; with OVCAR-5 ovarian, 38.9 µM.
As for `O=S(=O)(O)c1ccc2c(N=Nc3ccccc3)c(O)c(S(=O)(=O)O)cc2c1`, the TGI in the experiment with CAKI-1 renal, in the experiment with UACC-62 melanoma, in the experiment on SR leukemia, in the experiment on IGROV1 ovarian, in the experiment on 786-0 renal and with OVCAR-5 ovarian was more than 100 µM in each case.
Turning to `O=C(O)CCC(C(=O)O)N1C(=O)c2ccccc2C1=O` (centres undefined), the TGI in the experiment with CAKI-1 renal, with UACC-62 melanoma, with SR leukemia, in the experiment on IGROV1 ovarian, in the experiment with 786-0 renal and with OVCAR-5 ovarian was more than 100 µM in each case.
For `c1ccc2c(c1)nc1n2CCNC1`, the TGI in the experiment on CAKI-1 renal, with UACC-62 melanoma, in the experiment on SR leukemia, with IGROV1 ovarian, with 786-0 renal and with OVCAR-5 ovarian was more than 100 µM throughout.
Take `CCOC(=O)CN=C1Nc2ccccc2C(=O)N2CSCC12` (centres undefined): the TGI in the experiment with CAKI-1 renal, in the experiment on UACC-62 melanoma, with SR leukemia, in the experiment with IGROV1 ovarian, in the experiment on 786-0 renal and in the experiment with OVCAR-5 ovarian was more than 100 µM each time.
With `COC(=O)C1=C(O)C(C(=O)OC)[C@]2(O)[C@H](C(=O)OC)[C@H]1C[C@@H](c1cccc(OC)c1)[C@H]2C(=O)OC` (some centres undefined), the TGI was 73.3 µM in the experiment on CAKI-1 renal; 35.1 µM in the experiment with UACC-62 melanoma; more than 100 µM with SR leukemia; more than 100 µM with IGROV1 ovarian; 56.1 µM in the experiment on 786-0 renal; 66.4 µM with OVCAR-5 ovarian.
As for `CC(=O)OC(CC(C)C)P1(=O)N(CC(C)(C)C)[C@@H]2CCCC[C@H]2N1CC(C)(C)C` (some centres undefined), the TGI came to 26 µM in the experiment on CAKI-1 renal; 23.3 µM in the experiment with UACC-62 melanoma; 30.4 µM in the experiment on SR leukemia; 24.2 µM in the experiment with IGROV1 ovarian; 23.9 µM in the experiment with 786-0 renal; 22.9 µM in the experiment on OVCAR-5 ovarian.
Take `O=C(CCCC1Cc2ccccc2C1=O)c1ccccc1` (centres undefined): the TGI in the experiment on CAKI-1 renal, with UACC-62 melanoma, in the experiment on SR leukemia, in the experiment with IGROV1 ovarian, with 786-0 renal and in the experiment on OVCAR-5 ovarian was more than 100 µM in each case.
On to `O=C1CSC(c2cccc(Cl)c2)N1c1c(O)c(Cl)cc(Br)c1Cl` (centres undefined), for which the TGI is more than 100 µM in the experiment on CAKI-1 renal; 56.9 µM in the experiment on UACC-62 melanoma; 70.6 µM with SR leukemia; 71.7 µM with 786-0 renal; more than 100 µM in the experiment on OVCAR-5 ovarian.
As for `CC(C)=CCC/C(=C\CC/C(=C\CCc1ccoc1)C(=O)O)C(=O)O`, the TGI with CAKI-1 renal, with UACC-62 melanoma, in the experiment on SR leukemia, with IGROV1 ovarian, with 786-0 renal and in the experiment with OVCAR-5 ovarian was more than 100 µM in each case.
Take `CC1(CCc2ccccc2)CC1(Br)Br` (centres undefined): the TGI in the experiment on CAKI-1 renal is more than 100 µM; with UACC-62 melanoma it was more than 100 µM; in the experiment with SR leukemia, 41.6 µM; in the experiment on IGROV1 ovarian, more than 100 µM; in the experiment with 786-0 renal, 57.5 µM; with OVCAR-5 ovarian, more than 100 µM.
For the compound `CSc1nc2c(c(=O)n1C)N=C(c1ccc(Cl)cc1)CC(c1ccccc1)N2` (centres undefined), the TGI in the experiment with CAKI-1 renal is 46.4 µM; in the experiment with UACC-62 melanoma, 34.7 µM; in the experiment on SR leukemia, more than 100 µM; in the experiment with IGROV1 ovarian, 55.4 µM; in the experiment with 786-0 renal it was more than 100 µM; with OVCAR-5 ovarian, more than 100 µM.
In the case of `CN(C)Cc1cc(C(C)(C)C)cc(CNC2CCCCC2)c1O`, the TGI in the experiment with CAKI-1 renal was more than 100 µM; in the experiment on UACC-62 melanoma, more than 100 µM; with SR leukemia, 71.8 µM; in the experiment on IGROV1 ovarian, more than 100 µM; in the experiment with 786-0 renal, more than 100 µM; in the experiment with OVCAR-5 ovarian, 73.3 µM.
In the case of `COc1ccc(-c2cc(C3CC3)nc(SCC(=O)O)c2C#N)cc1`, the TGI in the experiment on CAKI-1 renal, in the experiment on UACC-62 melanoma, in the experiment with SR leukemia, with IGROV1 ovarian, in the experiment with 786-0 renal and with OVCAR-5 ovarian was more than 100 µM each time.
Consider `OCCN1CN(c2nc(N3CN(CCO)C3)nc(N3CN(CCO)C3)n2)C1`, for which the TGI was 58.2 µM in the experiment on CAKI-1 renal; 28.8 µM in the experiment on UACC-62 melanoma; more than 100 µM in the experiment on SR leukemia; 85.6 µM in the experiment on IGROV1 ovarian; 60.7 µM in the experiment with 786-0 renal; 60.2 µM in the experiment on OVCAR-5 ovarian.
On to `N#Cc1ccc(OC(=O)c2ccc(N=C(N)N)cc2)cc1`, for which the TGI in the experiment on CAKI-1 renal, with UACC-62 melanoma, in the experiment with SR leukemia, with IGROV1 ovarian, with 786-0 renal and with OVCAR-5 ovarian was more than 100 µM each time.
For `O=C(O)CS(=O)c1ccc2c3c(cccc13)C(=O)c1ccccc1-2` (centres undefined), the TGI in the experiment on CAKI-1 renal, in the experiment with UACC-62 melanoma, in the experiment on SR leukemia, in the experiment with IGROV1 ovarian, in the experiment on 786-0 renal and with OVCAR-5 ovarian was more than 100 µM throughout.
With `O=C1c2n[nH]nc2C(=O)c2n[nH]nc21`, the TGI with CAKI-1 renal, in the experiment with UACC-62 melanoma, with SR leukemia, in the experiment with IGROV1 ovarian, in the experiment with 786-0 renal and with OVCAR-5 ovarian was more than 100 µM throughout.
For `Cc1ccc(C2(N3CCCC3)OC(C)(C)c3cccc4cccc2c34)cc1` (centres undefined), the TGI in the experiment with CAKI-1 renal stood at 36.5 µM; in the experiment on UACC-62 melanoma it was 27.5 µM; in the experiment with SR leukemia, 67.6 µM; with IGROV1 ovarian, 29.8 µM; in the experiment with 786-0 renal, 37.6 µM; with OVCAR-5 ovarian, 31.4 µM.
As for `CCSCC(=O)N1CCc2c([nH]c3ccccc23)C1=O`, the TGI in the experiment on CAKI-1 renal, in the experiment with UACC-62 melanoma, in the experiment on SR leukemia, in the experiment on IGROV1 ovarian, with 786-0 renal and with OVCAR-5 ovarian was more than 100 µM each time.
Consider `CCOP(=O)(CC1CC(O)(CNc2cc(Cl)nc(N)n2)C1)OCC` (centres undefined), for which the TGI with CAKI-1 renal, with UACC-62 melanoma, in the experiment with SR leukemia, in the experiment on IGROV1 ovarian, with 786-0 renal and in the experiment on OVCAR-5 ovarian was more than 100 µM each time.
For `NC(CCl)=NC1CN2CCC1CC2` (centres undefined), the TGI with CAKI-1 renal, with UACC-62 melanoma, in the experiment with SR leukemia, with IGROV1 ovarian, in the experiment on 786-0 renal and in the experiment on OVCAR-5 ovarian was more than 100 µM throughout.
Consider `N#Cc1nc(C(F)(F)F)oc1N`, for which the TGI in the experiment with CAKI-1 renal, with UACC-62 melanoma, in the experiment on SR leukemia, with IGROV1 ovarian, in the experiment on 786-0 renal and in the experiment with OVCAR-5 ovarian was more than 100 µM in each case.

The values above are taken from PubChem BioAssay (NCI).
